# Measured values from US20260285850A1, “SUBSTITUTED OXAZOLIDINONES AND IMIDAZOLINONES AS HERBICIDES” (FMC CORPORATION, priority 2023, published 2026).
# Experiments:
# Format in all cases: in vivo
# [1] = system: galium (catchweed bedstraw, Galium aparine); experiment: Test A postemergence application, visual injury rating 0-100; details: Postemergence, 1000 g ai/ha, 0 to 100 scale, 10 days
# Method in brief: (§1)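 Plants were grown in a loam soil-sand blend and treated with test chemical in a non-phytotoxic solvent mixture containing surfactant, either sprayed on soil preemergence or applied postemergence to 2-10 cm plants. After 10 days in a greenhouse, injury was scored visually against untreated controls, 0 meaning no effect and 100 complete control.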
# [2] = system: ryegrass, Italian (italian ryegrass, Lolium multiflorum); experiment: as above; details: Postemergence, 1000 g ai/ha, 0 to 100 scale, 10 days
# Method in brief: as §1
# [3] = system: barnyardgrass (Echinochloa crus-galli); experiment: as above; details: Postemergence, 1000 g ai/ha, 0 to 100 scale, 10 days
# Method in brief: as §1
# [4] = system: palmer (palmer amaranth, palmer pigweed, Amaranthus palmeri); experiment: as above; details: Postemergence, 1000 g ai/ha, 0 to 100 scale, 10 days
# Method in brief: as §1
# [5] = system: blackgrass (Alopecurus myosuroides); experiment: as above; details: Postemergence, 1000 g ai/ha, 0 to 100 scale, 10 days
# Method in brief: as §1
# [6] = system: foxtail, giant (giant foxtail, Setaria faberi); experiment: as above; details: 1000 g ai/ha, 0 to 100 scale, 10 days
# Method in brief: as §1
# [7] = system: horseweed (Erigeron canadensis); experiment: as above; details: Postemergence, 1000 g ai/ha, 0 to 100 scale, 10 days
# Method in brief: as §1
# [8] = system: ragweed (common ragweed, Ambrosia artemisiifolia); experiment: as above; details: Postemergence, 1000 g ai/ha, 0 to 100 scale, 10 days
# Method in brief: as §1
# [9] = system: kochia (Bassia scoparia); experiment: as above; details: Postemergence, 1000 g ai/ha, 0 to 100 scale, 10 days
# Method in brief: as §1
# [10] = system: ryegrass, Italian (italian ryegrass, Lolium multiflorum); experiment: Test A preemergence soil spray, visual injury rating 0-100; details: 1000 g ai/ha, 10 days, 0 = no effect, 100 = complete control
# Method in brief: as §1
# [11] = system: barnyardgrass (Echinochloa crus-galli); experiment: as above; details: 1000 g ai/ha, 10 days, 0 = no effect, 100 = complete control
# Method in brief: as §1
# [12] = system: palmer (palmer amaranth, palmer pigweed, Amaranthus palmeri); experiment: as above; details: 1000 g ai/ha, 10 days, 0 = no effect, 100 = complete control
# Method in brief: as §1
# [13] = system: blackgrass (Alopecurus myosuroides); experiment: as above; details: 1000 g ai/ha, 10 days, 0 = no effect, 100 = complete control
# Method in brief: as §1
# [14] = system: foxtail, giant (giant foxtail, Setaria faberi); experiment: as above; details: 1000 g ai/ha, 10 days, 0 = no effect, 100 = complete control
# Method in brief: as §1
# [15] = system: ragweed (common ragweed, Ambrosia artemisiifolia); experiment: as above; details: 1000 g ai/ha, 10 days, 0 = no effect, 100 = complete control
# Method in brief: as §1
# [16] = system: kochia (Bassia scoparia); experiment: as above; details: 1000 g ai/ha, 10 days, 0 = no effect, 100 = complete control
# Method in brief: as §1
# [17] = system: barnyardgrass (Echinochloa crusgalli); experiment: Test B flooded paddy test, visual plant response rating 0-100; details: 250 g ai/ha, Flood, applied to paddy water, evaluated after 13 days
# Method in brief: (§2)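 Visual evaluation after 13 days. Water-applied treatment, 3 cm flood depth held constant, plants at 2-leaf stage at treatment.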
# [18] = system: rice (Oryza sativa); experiment: as above; details: 250 g ai/ha, Flood, applied to paddy water, evaluated after 13 days
# Method in brief: as §2
# [19] = system: sedge, umbrella (small-flower umbrella sedge, Cyperus difformis); experiment: as above; details: 250 g ai/ha, Flood, applied to paddy water, evaluated after 13 days
# Method in brief: as §2
# [20] = system: ducksalad (Heteranthera limosa); experiment: as above; details: 250 g ai/ha, Flood, applied to paddy water, evaluated after 13 days
# Method in brief: as §2
SMILES,Galium plant response rating [1],"Ryegrass, Italian plant response rating [2]",Barnyardgrass plant response rating [3],"Amaranth, Palmer plant response rating [4]",Blackgrass plant response rating [5],"Foxtail, Giant plant response rating [6]",Horseweed plant response rating [7],Ragweed plant response rating [8],Kochia plant response rating [9],"Ryegrass, Italian plant response rating (0 to 100 scale) [10]",Barnyardgrass plant response rating (0 to 100 scale) [11],"Amaranth, Palmer / Pigweed, Palmer plant response rating (0 to 100 scale) [12]",Blackgrass plant response rating (0 to 100 scale) [13],"Foxtail, Giant plant response rating (0 to 100 scale) [14]",Ragweed plant response rating (0 to 100 scale) [15],Kochia plant response rating (0 to 100 scale) [16],"Plant response rating, Barnyardgrass (0 to 100 scale, 0 is no effect and 100 is complete control) [17]","Plant response rating, Rice (0 to 100 scale, 0 is no effect and 100 is complete control) [18]","Plant response rating, Sedge, Umbrella (0 to 100 scale, 0 is no effect and 100 is complete control) [19]","Plant response rating, Ducksalad (0 to 100 scale, 0 is no effect and 100 is complete control) [20]"
CCCS(=O)(=O)NC(=O)C1C=CC(NC(=O)C2(C)CN(c3cc(F)cc(F)c3)C(=O)O2)C1 (stereo not shown) [Compound 50],80,100,90,90,90,90,70,70,70,100,90,100,90,90,50,100,60,75,60,70
CC(C)OC(=O)C1C=CC(NC(=O)C2(C)CN(c3cc(F)cc(F)c3)C(=O)O2)C1 (stereo not shown) [Compound 52],80,60,100,90,90,90,100,70,70,100,100,100,90,100,90,100,75,65,90,60
